According to PubChem BioAssay AID1745844 (Carcinogenic Potency Database (CPDB), 2022):
Activity calls are given as the source filed them. How the calls were made is not given here.

System: rodent lifetime carcinogenesis bioassay, tumor incidence TD50
Assay: chronic cancer bioassays in animals – CPDB, compiled studies (AID 1745844)

## Nc1ncn([C@@H]2O[C@H](CO)[C@@H](O)[C@H]2O)c(=O)n1
mouse, strain B6C3F1, females, i.p., site: all sites + multiple organs, lesion: lymphoma + granulocytic leukemia + granulocytic sarcoma, dosed 52 weeks, study length 81 weeks
  TD50: 0.256 mg/kg/day
mouse, strain B6C3F1, females, i.p., site: all sites, lesion: lymphoma, dosed 52 weeks, study length 81 weeks
  TD50: 0.615 mg/kg/day
mouse, strain B6C3F1, females, i.p., site: any site (literature study), lesion: several types, types named in the paper, dosed 52 weeks, study length 81 weeks
  TD50: 0.219 mg/kg/day
mouse, strain B6C3F1, females, i.p., site: multiple organs, lesion: granulocytic leukemia + granulocytic sarcoma, dosed 52 weeks, study length 81 weeks
  TD50: 0.52 mg/kg/day
mouse, strain B6C3F1, males, i.p., site: any site (literature study), lesion: several types, types named in the paper, dosed 52 weeks, study length 81 weeks
  TD50: 1.05 mg/kg/day
mouse, strain B6C3F1, males, i.p., site: liver, lesion: hepatocellular adenoma + hepatocellular carcinoma + neoplastic nodule, dosed 52 weeks, study length 81 weeks
  TD50: 15.7 mg/kg/day
mouse, strain B6C3F1, males, i.p., site: lung, lesion: alveolar/bronchiolar adenoma + alveolar/bronchiolar carcinoma, dosed 52 weeks, study length 81 weeks
  TD50: 61.4 mg/kg/day
mouse, strain BALB/c, females, i.p., site: any site (literature study), lesion: one or several types, types not named, dosed 50 weeks, study length 72 weeks
  TD50: 0.0364 mg/kg/day
mouse, strain BALB/c, females, i.p., site: lymphoreticular system, lesion: several types, types named in the paper, dosed 50 weeks, study length 72 weeks
  TD50: 0.0569 mg/kg/day
mouse, strain BALB/c, females, i.p., site: mammary gland, lesion: adenocarcinoma, type B, dosed 50 weeks, study length 72 weeks
  TD50: 0.618 mg/kg/day
mouse, strain BALB/c, females, i.p., site: mammary gland, lesion: several types, types named in the paper, dosed 50 weeks, study length 72 weeks
  TD50: 0.432 mg/kg/day
mouse, strain BALB/c, females, i.p., site: skin, lesion: several types, types named in the paper, dosed 50 weeks, study length 72 weeks
  TD50: 0.499 mg/kg/day
mouse, strain BALB/c, males, i.p., site: any site (literature study), lesion: one or several types, types not named, dosed 50 weeks, study length 67 weeks
  TD50: 0.0539 mg/kg/day
mouse, strain BALB/c, males, i.p., site: liver, lesion: hepatocellular adenoma, dosed 50 weeks, study length 67 weeks
  TD50: 1.49 mg/kg/day
mouse, strain BALB/c, males, i.p., site: lung, lesion: adenoma, dosed 50 weeks, study length 67 weeks
  TD50: 0.121 mg/kg/day
mouse, strain BALB/c, males, i.p., site: lymphoreticular system, lesion: several types, types named in the paper, dosed 50 weeks, study length 67 weeks
  TD50: 0.285 mg/kg/day
mouse, strain BALB/c, males, i.p., site: skin, lesion: several types, types named in the paper, dosed 50 weeks, study length 67 weeks
  TD50: 0.98 mg/kg/day
rat, strain Fischer 344, males, i.p., site: any site (literature study), lesion: one or several types, types not named, dosed 52 weeks, study length 52 weeks
  TD50: 0.17 mg/kg/day
rat, strain Fischer 344, males, i.p., site: testis, lesion: one or several types, types not named, dosed 52 weeks, study length 52 weeks
  TD50: 0.222 mg/kg/day
rat, strain Sprague-Dawley, females, i.p., site: any site (literature study), lesion: several types, types named in the paper, dosed 34 weeks, study length 80 weeks
  TD50: 0.487 mg/kg/day
rat, strain Sprague-Dawley, males, i.p., site: any site (literature study), lesion: several types, types named in the paper, dosed 34 weeks, study length 80 weeks
  TD50: 0.328 mg/kg/day

## O=CNNc1nc(-c2ccc([N+](=O)[O-])o2)cs1
hamster, strain Syrian Golden, males, in feed, site: forestomach, lesion: squamous-cell papilloma, dosed 48 weeks, study length 70 weeks
  TD50: 25.1 mg/kg/day
hamster, strain Syrian Golden, males, in feed, site: urinary bladder, lesion: transitional-cell carcinoma, dosed 48 weeks, study length 70 weeks
  TD50: 16.6 mg/kg/day
mouse, strain Swiss, females, in feed, site: all sites, lesion: leukemia, dosed 33 weeks, study length 52 weeks
  TD50: 25.6 mg/kg/day
mouse, strain Swiss, females, in feed, site: all sites, lesion: lymphocytic leukemia, dosed 33 weeks, study length 52 weeks
  TD50: 11.4 mg/kg/day
mouse, strain Swiss, females, in feed, site: any site (literature study), lesion: several types, types named in the paper, dosed 33 weeks, study length 52 weeks
  TD50: 2.42 mg/kg/day
mouse, strain Swiss, females, in feed, site: forestomach, lesion: papilloma, dosed 33 weeks, study length 52 weeks
  TD50: 13.8 mg/kg/day
mouse, strain Swiss, females, in feed, site: forestomach, lesion: squamous-cell papilloma, dosed 33 weeks, study length 52 weeks
  TD50: 8.85 mg/kg/day
mouse, strain Swiss, females, in feed, site: lung, lesion: alveolar-cell carcinoma, dosed 33 weeks, study length 52 weeks
  TD50: 67.1 mg/kg/day
rat, strain Buffalo, females, in feed, site: kidney, lesion: several types, types named in the paper, dosed 46 weeks, study length 64 weeks
  TD50: 17.5 mg/kg/day
rat, strain Buffalo, females, in feed, site: kidney, lesion: tubular adenoma, dosed 46 weeks, study length 64 weeks
  TD50: 98.6 mg/kg/day
rat, strain Buffalo, females, in feed, site: kidney, lesion: tubular-cell adenocarcinoma, dosed 46 weeks, study length 64 weeks
  TD50: 44.1 mg/kg/day
rat, strain Buffalo, females, in feed, site: liver, lesion: cystadenoma, dosed 46 weeks, study length 64 weeks
  TD50: 39.1 mg/kg/day
rat, strain Buffalo, females, in feed, site: mammary gland, lesion: adenocarcinoma, dosed 46 weeks, study length 64 weeks
  TD50: 13.1 mg/kg/day
rat, strain Buffalo, females, in feed, site: mammary gland, lesion: adenofibroma, dosed 46 weeks, study length 64 weeks
  TD50: 80.5 mg/kg/day
rat, strain Buffalo, females, in feed, site: mammary gland, lesion: several types, types named in the paper, dosed 46 weeks, study length 64 weeks
  TD50: 5.54 mg/kg/day
rat, strain Holtzman albino (Sprague-Dawley derived), females, in feed, site: cecum, lesion: adenocarcinoma, dosed 44 weeks, study length 60 weeks
  TD50: 210 mg/kg/day
rat, strain Holtzman albino (Sprague-Dawley derived), females, in feed, site: ear canal, lesion: squamous-cell carcinoma, dosed 44 weeks, study length 60 weeks
  TD50: 100 mg/kg/day
rat, strain Holtzman albino (Sprague-Dawley derived), females, in feed, site: kidney, lesion: adenoma, dosed 44 weeks, study length 60 weeks
  TD50: 17.6 mg/kg/day
rat, strain Holtzman albino (Sprague-Dawley derived), females, in feed, site: kidney, lesion: carcinoma, dosed 44 weeks, study length 60 weeks
  TD50: 78.5 mg/kg/day
rat, strain Holtzman albino (Sprague-Dawley derived), females, in feed, site: liver, lesion: hemangioendothelial sarcoma, dosed 44 weeks, study length 60 weeks
  TD50: 428 mg/kg/day (inactive)
rat, strain Holtzman albino (Sprague-Dawley derived), females, in feed, site: mammary tissue, wider than the gland, lesion: one or several types, types not named, dosed 44 weeks, study length 60 weeks
  TD50: 5.5 mg/kg/day
rat, strain Holtzman albino (Sprague-Dawley derived), females, in feed, site: small intestine, lesion: adenocarcinoma, dosed 44 weeks, study length 60 weeks
  TD50: 78.5 mg/kg/day
rat, strain Sprague-Dawley, females, in feed, site: all sites, lesion: lymphoblastic lymphoma, dosed 45 weeks, study length 75 weeks
  TD50: 184 mg/kg/day
rat, strain Sprague-Dawley, females, in feed, site: any site (literature study), lesion: several types, types named in the paper, dosed 45 weeks, study length 75 weeks
  TD50: 3.79 mg/kg/day
rat, strain Sprague-Dawley, females, in feed, site: forestomach, lesion: squamous-cell papilloma, dosed 45 weeks, study length 75 weeks
  TD50: 65.4 mg/kg/day
rat, strain Sprague-Dawley, females, in feed, site: kidney/pelvis, lesion: transitional-cell carcinoma, dosed 45 weeks, study length 75 weeks
  TD50: 137 mg/kg/day
rat, strain Sprague-Dawley, females, in feed, site: kidney, lesion: renal-cell carcinoma, dosed 45 weeks, study length 75 weeks
  TD50: 65.4 mg/kg/day
rat, strain Sprague-Dawley, females, in feed, site: kidney, lesion: several types, types named in the paper, dosed 46 weeks, study length 64 weeks
  TD50: 9.96 mg/kg/day
rat, strain Sprague-Dawley, females, in feed, site: kidney, lesion: tubular adenoma, dosed 46 weeks, study length 64 weeks
  TD50: 50.7 mg/kg/day
rat, strain Sprague-Dawley, females, in feed, site: kidney, lesion: tubular-cell adenocarcinoma, dosed 46 weeks, study length 64 weeks
  TD50: 33.9 mg/kg/day
rat, strain Sprague-Dawley, females, in feed, site: liver, lesion: cystadenoma, dosed 46 weeks, study length 64 weeks
  TD50: 43.9 mg/kg/day
rat, strain Sprague-Dawley, females, in feed, site: liver, lesion: one or several types, types not named, dosed 45 weeks, study length 75 weeks
  carcinogen call: negative (inactive)
rat, strain Sprague-Dawley, females, in feed, site: liver, lesion: several types, types named in the paper, dosed 46 weeks, study length 64 weeks
  TD50: 30.1 mg/kg/day
rat, strain Sprague-Dawley, females, in feed, site: mammary gland, lesion: adenocarcinoma, dosed 45 weeks, study length 75 weeks
  TD50: 3.54 mg/kg/day
rat, strain Sprague-Dawley, females, in feed, site: mammary gland, lesion: adenocarcinoma, dosed 46 weeks, study length 64 weeks
  TD50: 19.5 mg/kg/day
rat, strain Sprague-Dawley, females, in feed, site: mammary gland, lesion: adenofibroma, dosed 46 weeks, study length 64 weeks
  TD50: 52.8 mg/kg/day
rat, strain Sprague-Dawley, females, in feed, site: mammary gland, lesion: several types, types named in the paper, dosed 46 weeks, study length 64 weeks
  TD50: 5.85 mg/kg/day
rat, strain Sprague-Dawley, males, in feed, site: kidney/pelvis, lesion: transitional-cell carcinoma, dosed 46 weeks, study length 64 weeks
  TD50: 69.9 mg/kg/day
rat, strain Sprague-Dawley, males, in feed, site: kidney, lesion: several types, types named in the paper, dosed 46 weeks, study length 64 weeks
  TD50: 5.82 mg/kg/day
rat, strain Sprague-Dawley, males, in feed, site: kidney, lesion: tubular adenoma, dosed 46 weeks, study length 64 weeks
  TD50: 47.6 mg/kg/day
rat, strain Sprague-Dawley, males, in feed, site: kidney, lesion: tubular-cell adenocarcinoma, dosed 46 weeks, study length 64 weeks
  TD50: 19.3 mg/kg/day
rat, strain Sprague-Dawley, males, in feed, site: liver, lesion: cystadenoma, dosed 46 weeks, study length 64 weeks
  TD50: 35.3 mg/kg/day
rat, strain Sprague-Dawley, males, in feed, site: mammary gland, lesion: adenofibroma, dosed 46 weeks, study length 64 weeks
  TD50: 46.2 mg/kg/day

## ClCC=CCCl
rat, strain Charles River CD (Sprague-Dawley), females, inhaled, site: nasal cavity, lesion: adenoma, dosed 51 weeks, study length 104 weeks
  TD50: 13 mg/kg/day
rat, strain Charles River CD (Sprague-Dawley), females, inhaled, site: nasal cavity, lesion: adenoma, dosed 104 weeks, study length 104 weeks
  TD50: 0.695 mg/kg/day
rat, strain Charles River CD (Sprague-Dawley), females, inhaled, site: nasal cavity, lesion: malignant tumor, dosed 51 weeks, study length 104 weeks
  TD50: 0.242 mg/kg/day
rat, strain Charles River CD (Sprague-Dawley), females, inhaled, site: nasal cavity, lesion: malignant tumor, dosed 104 weeks, study length 104 weeks
  TD50: 8.32 mg/kg/day
rat, strain Charles River CD (Sprague-Dawley), males, inhaled, site: nasal cavity, olfactory epithelium, lesion: adenocarcinoma, dosed 82 weeks, study length 104 weeks
  TD50: 2 mg/kg/day
rat, strain Charles River CD (Sprague-Dawley), males, inhaled, site: nasal cavity, olfactory epithelium, lesion: carcinoma, dosed 82 weeks, study length 104 weeks
  TD50: 8.88 mg/kg/day
rat, strain Charles River CD (Sprague-Dawley), males, inhaled, site: nasal cavity, olfactory epithelium, lesion: carcinosarcoma, dosed 82 weeks, study length 104 weeks
  TD50: 8.88 mg/kg/day
rat, strain Charles River CD (Sprague-Dawley), males, inhaled, site: nasal cavity, olfactory epithelium, lesion: malignant tumor, dosed 82 weeks, study length 104 weeks
  TD50: 1.27 mg/kg/day
rat, strain Charles River CD (Sprague-Dawley), males, inhaled, site: nasal cavity, respiratory epithelium, lesion: adenoma, dosed 82 weeks, study length 104 weeks
  TD50: 0.653 mg/kg/day
rat, strain Charles River CD (Sprague-Dawley), males, inhaled, site: nasal cavity, lesion: adenoma, dosed 51 weeks, study length 104 weeks
  TD50: 23.2 mg/kg/day
rat, strain Charles River CD (Sprague-Dawley), males, inhaled, site: nasal cavity, lesion: adenoma, dosed 104 weeks, study length 104 weeks
  TD50: 0.313 mg/kg/day
rat, strain Charles River CD (Sprague-Dawley), males, inhaled, site: nasal cavity, lesion: malignant tumor, dosed 51 weeks, study length 104 weeks
  TD50: 0.169 mg/kg/day
rat, strain Charles River CD (Sprague-Dawley), males, inhaled, site: nasal cavity, lesion: malignant tumor, dosed 104 weeks, study length 104 weeks
  TD50: 1.04 mg/kg/day
rat, strain Charles River CD (Sprague-Dawley), males, inhaled, site: nasal cavity, lesion: several types, types named in the paper, dosed 82 weeks, study length 104 weeks
  TD50: 0.467 mg/kg/day
